# Test results: BindingDB's records for doi:10.1016/S0893-133X(01)00298-6 (Eli Lilly, 2001)
# Several values for one entry are separate records, joined by “and”; a condition that tells them apart may be missing. Equal entries are not always repeated.
# What was measured:
# [1] = biological target: 5-hydroxytryptamine receptor 1A (Homo sapiens, UniProt P08908)
# [2] = biological target: Amine oxidase [flavin-containing] A (Rattus norvegicus, UniProt P21396)
# [3] = biological target: Amine oxidase [flavin-containing] B (Rattus norvegicus, UniProt P19643)
# Mu-type opioid receptor = Mu-type opioid receptor (Rattus norvegicus, UniProt P33535)
# [4] = biological target: Kappa-type opioid receptor (Cavia porcellus, UniProt P41144)
# [5] = biological target: 5-hydroxytryptamine receptor 6 (Homo sapiens, UniProt P50406)
# [6] = biological target: Nitric oxide synthase, brain (Rattus norvegicus, UniProt P29476)
# [7] = biological target: Delta-type opioid receptor (Rattus norvegicus, UniProt P33533)
# [8] = biological target: 5-hydroxytryptamine receptor 1D (Homo sapiens, UniProt P28221)
# [9] = biological target: Alpha-1B adrenergic receptor (Rattus norvegicus, UniProt P15823)
# [10] = biological target: Sigma non-opioid intracellular receptor 1 (Cavia porcellus, UniProt Q60492)
# Adenosine receptor A1 = Adenosine receptor A1 (Rattus norvegicus, UniProt P25099)
# D(2) dopamine receptor = D(2) dopamine receptor (Homo sapiens, UniProt P14416)
# [11] = biological target: ATP-sensitive inward rectifier potassium channel 1 (Rattus norvegicus, UniProt P35560)
# [12] = biological target: Muscarinic acetylcholine receptor M2 (Homo sapiens, UniProt P08172)
# [13] = biological target: Gamma-aminobutyric acid receptor subunit alpha-1 (Rattus norvegicus, UniProt P62813)
# Adenosine receptor A2b = Adenosine receptor A2b (Bos taurus, UniProt Q1LZD0)
# [14] = biological target: Gastrin/cholecystokinin type B receptor (Mus musculus, UniProt P56481)
# D(1A) dopamine receptor = D(1A) dopamine receptor (Rattus norvegicus, UniProt P18901)
# [15] = biological target: Gamma-aminobutyric acid receptor subunit alpha-1 (Bos taurus, UniProt P08219)
# Glutamate receptor 3 = Glutamate receptor 3 (Rattus norvegicus, UniProt P19492)
# [16] = biological target: Glutamate receptor ionotropic, kainate 1 (Rattus norvegicus, UniProt P22756)
# [17] = biological target: Glycine receptor subunit alpha-1 (Rattus norvegicus, UniProt P07727)
# [18] = biological target: Phosphatidylinositol 3,4,5-trisphosphate 5-phosphatase 2 (Rattus norvegicus, UniProt Q9WVR3)
# Substance-K receptor = Substance-K receptor (Rattus norvegicus, UniProt P16610)
# Alpha-bungarotoxin = Alpha-bungarotoxin (Bungarus multicinctus, UniProt P60615)
# [19] = biological target: Calcium-activated potassium channel subunit beta-1 (Rattus norvegicus, UniProt P97678)
# [20] = biological target: Sodium channel protein type 1 subunit alpha (Rattus norvegicus, UniProt P04774)
# [21] = biological target: Sodium channel protein type 2 subunit alpha (Rattus norvegicus, UniProt P04775)
# [22] = biological target: Alpha-2A adrenergic receptor (Homo sapiens, UniProt P08913)
# [23] = biological target: Alpha-1A adrenergic receptor (Homo sapiens, UniProt P35348)
# Chain of Muscarinic acetylcholine receptor M2 (P08172 whole entry): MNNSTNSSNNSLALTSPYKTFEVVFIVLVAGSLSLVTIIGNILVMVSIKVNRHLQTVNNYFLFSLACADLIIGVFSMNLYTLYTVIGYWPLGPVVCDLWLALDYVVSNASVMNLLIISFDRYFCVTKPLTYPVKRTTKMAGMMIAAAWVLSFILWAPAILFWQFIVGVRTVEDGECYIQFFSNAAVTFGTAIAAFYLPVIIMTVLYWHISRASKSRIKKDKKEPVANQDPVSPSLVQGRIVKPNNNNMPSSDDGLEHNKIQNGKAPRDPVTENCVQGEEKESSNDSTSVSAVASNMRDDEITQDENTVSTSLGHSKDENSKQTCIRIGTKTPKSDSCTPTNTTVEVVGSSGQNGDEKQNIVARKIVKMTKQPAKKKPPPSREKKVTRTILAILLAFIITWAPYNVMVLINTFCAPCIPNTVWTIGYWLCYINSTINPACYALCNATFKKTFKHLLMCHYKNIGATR
# Chain of Sigma non-opioid intracellular receptor 1 (Q60492 whole entry): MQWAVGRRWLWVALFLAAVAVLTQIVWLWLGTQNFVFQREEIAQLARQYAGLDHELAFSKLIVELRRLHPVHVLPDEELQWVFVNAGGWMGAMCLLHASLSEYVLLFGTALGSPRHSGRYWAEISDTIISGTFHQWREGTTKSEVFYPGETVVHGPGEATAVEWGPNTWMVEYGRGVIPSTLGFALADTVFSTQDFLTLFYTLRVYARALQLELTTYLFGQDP
# Chain of Alpha-2A adrenergic receptor (P08913 whole entry): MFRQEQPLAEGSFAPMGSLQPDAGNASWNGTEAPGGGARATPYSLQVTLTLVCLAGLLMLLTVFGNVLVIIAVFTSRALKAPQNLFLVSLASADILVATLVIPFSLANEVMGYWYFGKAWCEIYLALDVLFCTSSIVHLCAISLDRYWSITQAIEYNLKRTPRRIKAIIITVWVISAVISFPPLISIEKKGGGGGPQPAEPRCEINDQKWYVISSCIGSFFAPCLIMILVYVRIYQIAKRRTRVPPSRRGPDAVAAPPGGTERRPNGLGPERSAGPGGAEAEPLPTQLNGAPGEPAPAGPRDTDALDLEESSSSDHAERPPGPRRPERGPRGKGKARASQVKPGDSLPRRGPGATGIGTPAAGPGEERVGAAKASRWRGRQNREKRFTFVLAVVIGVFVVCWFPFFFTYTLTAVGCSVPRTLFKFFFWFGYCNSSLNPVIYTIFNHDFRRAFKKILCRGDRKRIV
# Chain of Glutamate receptor ionotropic, kainate 1 (P22756 whole entry): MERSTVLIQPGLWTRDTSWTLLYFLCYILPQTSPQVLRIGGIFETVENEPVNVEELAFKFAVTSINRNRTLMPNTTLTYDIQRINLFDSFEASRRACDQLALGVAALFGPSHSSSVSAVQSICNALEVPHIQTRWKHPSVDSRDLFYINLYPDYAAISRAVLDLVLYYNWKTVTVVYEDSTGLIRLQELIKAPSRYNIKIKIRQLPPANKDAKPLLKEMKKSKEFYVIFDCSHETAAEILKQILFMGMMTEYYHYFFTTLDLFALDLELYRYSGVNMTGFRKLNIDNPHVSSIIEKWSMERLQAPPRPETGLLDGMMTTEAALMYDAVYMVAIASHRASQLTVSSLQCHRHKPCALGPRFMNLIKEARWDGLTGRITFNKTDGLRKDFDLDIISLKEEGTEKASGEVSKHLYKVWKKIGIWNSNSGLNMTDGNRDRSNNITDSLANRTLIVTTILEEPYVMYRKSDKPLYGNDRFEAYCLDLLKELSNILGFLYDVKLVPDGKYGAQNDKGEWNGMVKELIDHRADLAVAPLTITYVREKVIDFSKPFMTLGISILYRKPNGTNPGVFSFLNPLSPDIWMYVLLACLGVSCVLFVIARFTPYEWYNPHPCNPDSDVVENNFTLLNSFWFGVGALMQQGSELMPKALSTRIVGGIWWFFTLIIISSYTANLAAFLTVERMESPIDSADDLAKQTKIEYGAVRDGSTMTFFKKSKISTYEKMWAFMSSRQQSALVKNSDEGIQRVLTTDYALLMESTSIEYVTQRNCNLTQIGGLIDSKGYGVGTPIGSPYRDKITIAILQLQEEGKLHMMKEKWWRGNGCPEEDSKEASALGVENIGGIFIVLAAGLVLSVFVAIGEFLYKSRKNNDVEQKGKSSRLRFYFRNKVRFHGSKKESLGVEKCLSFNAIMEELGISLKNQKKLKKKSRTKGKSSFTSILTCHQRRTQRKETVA
# Chain of 5-hydroxytryptamine receptor 1A (P08908 whole entry): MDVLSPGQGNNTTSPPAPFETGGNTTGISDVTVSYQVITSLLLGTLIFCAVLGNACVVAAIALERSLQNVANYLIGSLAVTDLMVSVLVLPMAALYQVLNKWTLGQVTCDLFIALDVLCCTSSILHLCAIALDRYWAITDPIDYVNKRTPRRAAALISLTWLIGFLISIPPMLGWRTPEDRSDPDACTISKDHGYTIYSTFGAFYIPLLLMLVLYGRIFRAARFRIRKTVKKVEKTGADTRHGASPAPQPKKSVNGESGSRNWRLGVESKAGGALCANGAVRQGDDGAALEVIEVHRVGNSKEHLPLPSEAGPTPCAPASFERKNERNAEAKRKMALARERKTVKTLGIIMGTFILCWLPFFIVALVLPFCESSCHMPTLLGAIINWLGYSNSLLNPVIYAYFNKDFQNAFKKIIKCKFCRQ
# Chain of D(2) dopamine receptor (P14416 whole entry): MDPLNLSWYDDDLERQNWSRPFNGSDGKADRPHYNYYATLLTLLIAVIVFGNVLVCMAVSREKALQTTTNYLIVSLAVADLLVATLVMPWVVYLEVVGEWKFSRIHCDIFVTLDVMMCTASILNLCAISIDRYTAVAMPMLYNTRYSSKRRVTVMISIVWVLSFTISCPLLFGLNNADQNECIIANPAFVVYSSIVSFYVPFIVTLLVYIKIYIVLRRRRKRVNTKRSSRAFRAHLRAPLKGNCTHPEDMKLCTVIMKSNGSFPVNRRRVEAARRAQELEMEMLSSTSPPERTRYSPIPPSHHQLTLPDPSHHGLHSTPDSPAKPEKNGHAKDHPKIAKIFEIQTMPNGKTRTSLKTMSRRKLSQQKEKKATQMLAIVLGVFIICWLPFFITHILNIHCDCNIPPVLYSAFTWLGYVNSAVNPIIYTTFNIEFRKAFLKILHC
# Chain of Calcium-activated potassium channel subunit beta-1 (P97678 whole entry): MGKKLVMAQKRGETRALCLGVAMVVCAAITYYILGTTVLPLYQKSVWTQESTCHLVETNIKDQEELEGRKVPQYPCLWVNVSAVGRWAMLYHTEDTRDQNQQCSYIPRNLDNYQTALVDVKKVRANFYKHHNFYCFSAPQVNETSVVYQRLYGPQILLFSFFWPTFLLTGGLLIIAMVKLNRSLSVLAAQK
# Chain of Amine oxidase [flavin-containing] A (P21396 whole entry): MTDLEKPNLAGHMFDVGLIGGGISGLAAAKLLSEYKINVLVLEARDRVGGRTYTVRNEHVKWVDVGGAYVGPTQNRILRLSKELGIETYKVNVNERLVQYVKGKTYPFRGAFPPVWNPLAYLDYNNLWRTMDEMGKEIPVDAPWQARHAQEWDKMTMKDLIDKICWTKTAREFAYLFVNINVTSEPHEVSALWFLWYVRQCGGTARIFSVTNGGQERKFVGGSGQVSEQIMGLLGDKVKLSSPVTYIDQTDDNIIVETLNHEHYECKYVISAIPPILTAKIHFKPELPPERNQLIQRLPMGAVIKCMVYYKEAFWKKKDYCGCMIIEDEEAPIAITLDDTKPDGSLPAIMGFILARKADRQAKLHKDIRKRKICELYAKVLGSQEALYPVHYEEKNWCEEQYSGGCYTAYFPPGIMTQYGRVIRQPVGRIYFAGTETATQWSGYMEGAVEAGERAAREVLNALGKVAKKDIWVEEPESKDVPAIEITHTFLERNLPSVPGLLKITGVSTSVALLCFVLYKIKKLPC
# Chain of Amine oxidase [flavin-containing] B (P19643 whole entry): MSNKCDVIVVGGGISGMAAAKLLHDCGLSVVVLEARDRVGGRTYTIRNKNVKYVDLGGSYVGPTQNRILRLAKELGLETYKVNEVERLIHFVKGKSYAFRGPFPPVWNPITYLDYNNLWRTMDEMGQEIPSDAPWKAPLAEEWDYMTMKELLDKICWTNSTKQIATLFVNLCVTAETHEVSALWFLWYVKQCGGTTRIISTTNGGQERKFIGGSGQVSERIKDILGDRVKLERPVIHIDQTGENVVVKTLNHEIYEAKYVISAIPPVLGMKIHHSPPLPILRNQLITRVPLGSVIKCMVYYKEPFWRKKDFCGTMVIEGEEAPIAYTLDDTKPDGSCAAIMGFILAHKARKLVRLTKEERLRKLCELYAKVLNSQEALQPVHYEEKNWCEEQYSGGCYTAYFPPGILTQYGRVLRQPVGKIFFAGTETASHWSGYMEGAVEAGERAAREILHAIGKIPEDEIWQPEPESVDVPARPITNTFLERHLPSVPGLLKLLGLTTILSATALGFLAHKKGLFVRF
# Chain of Gamma-aminobutyric acid receptor subunit alpha-1 (Rattus norvegicus, UniProt P62813) (P62813 whole entry): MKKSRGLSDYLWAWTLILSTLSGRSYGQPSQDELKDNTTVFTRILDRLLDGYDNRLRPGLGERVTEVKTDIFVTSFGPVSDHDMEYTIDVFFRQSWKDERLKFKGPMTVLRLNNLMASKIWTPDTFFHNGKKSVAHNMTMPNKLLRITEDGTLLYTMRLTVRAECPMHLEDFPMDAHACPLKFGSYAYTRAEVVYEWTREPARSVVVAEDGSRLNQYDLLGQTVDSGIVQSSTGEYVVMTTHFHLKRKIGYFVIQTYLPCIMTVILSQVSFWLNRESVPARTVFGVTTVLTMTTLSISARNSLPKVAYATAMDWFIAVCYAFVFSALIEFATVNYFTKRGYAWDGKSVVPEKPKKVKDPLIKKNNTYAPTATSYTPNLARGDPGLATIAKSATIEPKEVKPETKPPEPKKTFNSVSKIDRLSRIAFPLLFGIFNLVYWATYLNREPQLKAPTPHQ
# Chain of Alpha-bungarotoxin (P60615 whole entry): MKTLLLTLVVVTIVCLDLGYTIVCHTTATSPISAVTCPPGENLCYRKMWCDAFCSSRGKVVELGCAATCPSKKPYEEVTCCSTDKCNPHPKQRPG
Structure (SMILES),Ki [1] [nM],Ki [2] [nM],Ki [3] [nM],Ki (Mu-type opioid receptor) [nM],Ki [4] [nM],Ki [5] [nM],Ki [6] [nM],Ki [7] [nM],Ki [8] [nM],Ki [9] [nM],Ki [10] [nM],Ki (Adenosine receptor A1) [nM],Ki (D(2) dopamine receptor) [nM],Ki [11] [nM],Ki [12],Ki [13] [nM],Ki (Adenosine receptor A2b) [nM],Ki [14] [nM],Ki (D(1A) dopamine receptor) [nM],Ki [15] [nM],further results
CNCC[C@H](Oc1cccc2ccccc12)c1cccs1 [DULOXETINE],5000,> 10000,> 10000,1000,1000,419,1000,1000,3000,> 1000,1000,> 1000,> 10000,> 1000,3000 nM and 1000 nM,> 1000,1000,> 1000,1000,> 1000,Ki (Glutamate receptor 3): > 1000 nM; Ki [16]: 1000 nM; Ki [17]: 1000 nM; Ki [18]: 1000 nM; Ki (Substance-K receptor): 1000 nM; Ki (Alpha-bungarotoxin): 1000 nM; Ki [19]: 1000 nM; Ki [20]: > 1000 nM; Ki [21]: > 1000 nM; Ki [22]: 8600 nM and 1000 nM
COc1ccc(C(CN(C)C)C2(O)CCCCC2)cc1 (stereo unspecified) [NSC_62923],> 10000,> 10000,> 10000,1000,1000,2790,1000,1000,> 10000,> 1000,1000,> 1000,> 10000,> 1000,> 10000 nM and 1000 nM,> 1000,1000,> 1000,1000,> 1000,Ki [23]: > 10000 nM; Ki (Glutamate receptor 3): > 1000 nM; Ki [16]: 1000 nM; Ki [17]: 1000 nM; Ki [18]: 1000 nM; Ki (Substance-K receptor): 1000 nM; Ki (Alpha-bungarotoxin): 1000 nM; Ki [19]: 1000 nM; Ki [20]: > 1000 nM; Ki [21]: > 1000 nM; Ki [22]: > 10000 nM and 1000 nM
